The text below walks through data of patent US11618747B2, “LXR modulators with bicyclic core moiety” (OrsoBio, Inc., priority 2018, dated 2023).

Series [1] deals with T1, ligand-binding domain (LBD) of LXRβ (Homo sapiens, UniProt P55055, DUP175-175).
T1 construct: LXRβ (amino acids 156-461); expressed in transfected cells; host or cells: HEK293
T1 sequence (P55055 with tags, fused parts or gaps DUP175-175 limits assumed): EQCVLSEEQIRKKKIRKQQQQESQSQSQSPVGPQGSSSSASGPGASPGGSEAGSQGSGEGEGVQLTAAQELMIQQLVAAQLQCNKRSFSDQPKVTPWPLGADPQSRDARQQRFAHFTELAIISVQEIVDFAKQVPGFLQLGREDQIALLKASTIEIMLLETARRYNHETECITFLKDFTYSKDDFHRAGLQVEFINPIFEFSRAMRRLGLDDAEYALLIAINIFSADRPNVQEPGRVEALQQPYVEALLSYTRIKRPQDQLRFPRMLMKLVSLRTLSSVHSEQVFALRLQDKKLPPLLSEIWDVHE
Nature of the series: LXR Gal4 reporter transient transfection assay (LBD-M2H Gal4β). The format is cell-based. The settings on record: HEK293 cells, LXRβ LBD; read-out: LBD-M2H Gal4β (EC50 range). The procedure, abridged:
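Mammalian two-hybrid in HEK293: AD-LXR (FL or LBD) + BD-cofactor (SRC1 coactivator or NCoR corepressor domain), pFR-Luc reporter, pRL-CMV normaliser; PEI transfection. Compound added 4 h later (DMSO ≤0.2% final), 16 h incubation at 37 °C. Firefly/Renilla luminescence measured sequentially in lysate.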

Series [2] concerns the target T2, LXRβ ligand-binding domain (Homo sapiens, UniProt P55055, DUP175-175).
T2 construct: amino acids 156-461; NP009052; made in house; host or cells: E. coli
T2 sequence (P55055 with tags, fused parts or gaps DUP175-175 limits assumed): T1 sequence (P55055 with tags, fused parts or gaps DUP175-175 limits assumed)
The series can be described thus: TR-FRETβ activity assay (NCoA3 coactivator peptide recruitment). The format is biochemical. The settings on record: TR-FRET, 1 μM 24(S)-25-epoxycholesterol prestimulation; read-out: FRETβ (EC50 range). The procedure, abridged: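 GST-tagged human LXRβ LBD (aa 156-461, E. coli) at 76 nM with 400 nM biotinylated NCoA3 peptide in Tris/HCl pH 6.8, 240 mM KCl, BSA, 0.002% Triton-X-100, plus 1 μM 24(S)-25-epoxycholesterol as prestimulating agonist. Compounds at 50 μM down to 0.002 μM, 1 h at 4 °C. Coactivator recruitment by TR-FRET (Tb cryptate/XL665, 615/665 nm), triplicates.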

Series [3] has as its target T3, ligand-binding domain (LBD) of LXRα (Homo sapiens, UniProt Q13133).
T3 construct: expressed in transfected cells; host or cells: HEK293
T3 sequence (Q13133 155-447): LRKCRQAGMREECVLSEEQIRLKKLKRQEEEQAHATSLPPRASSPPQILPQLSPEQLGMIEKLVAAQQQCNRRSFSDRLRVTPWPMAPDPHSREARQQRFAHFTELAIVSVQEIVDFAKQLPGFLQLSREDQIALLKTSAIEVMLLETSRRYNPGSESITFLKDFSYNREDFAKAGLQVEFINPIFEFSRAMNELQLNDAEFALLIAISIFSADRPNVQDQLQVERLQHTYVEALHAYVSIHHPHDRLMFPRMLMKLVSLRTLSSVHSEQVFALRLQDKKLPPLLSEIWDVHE
Nature of the series: LXR Gal4 reporter transient transfection assay (LBD-M2H Gal4α). The conditions noted are these: HEK293 cells, LXRα LBD; read-out: LBD-M2H Gal4α (EC50 range). It is filed as cell-based. Here is the method: The tested compounds were usually dissolved, tested and stored as 20 mM stock solutions in DMSO. Since sulfonyl acetic acid derivatives tend to decarboxylate under these conditions, these stock solutions were prepared, tested and stored as 20 mM DMSO stock solutions containing 100 mM trifluoroacetic Acid (5 equivalents). Sulfonyl acetic acid derivatives are shelf stable as solid at rt for long time as reported by Griesbrecht et al. (Synlett 2010:374) or Faucher et al. (J. Med. Chem. 2004; 47:18).
LXR Gal4 Reporter Transient Transfection Assays
LXRα and LXRβ activity status was determined via detection of interaction with coactivator and corepressor proteins in mammalian two-hybrid experiments (M2H). For this, via transient transfection the full length (FL) proteins of LXRα (amino acids 1-447; NP005684; SEQ ID NO:1) or LXRβ-(amino acids 1-461; NP009052; SEQ ID NO:2) or the ligand-binding domains (LBD) of LXRα (amino acids 155-447 SEQ ID NO:3) or LXRβ (amino acids 156-461; SEQ ID NO:4) were expressed from pCMV-AD (Stratagene) as fusions to the transcriptional activation domain of NFkB. As cofactors, domains of either the steroid receptor coactivator 1 (SRC1; amino acids 552-887; SEQ ID NO:5) or of the corepressor NCoR (amino acids 1906-2312; NP006302; SEQ ID NO:6) were expressed as fusions to the DNA binding domain of the yeast transcription factor GAL4 (from pCMV-BD; Stratagene). Interaction was monitored via activation of a coexpressed Firefly Luciferase Reporter gene under control of a promoter containing repetitive GAL4 response elements (vector pFRLuc; Stratagene). Transfection efficiency was controlled via cotransfection of constitutively active pRL-CMV Renila reniformis luciferase reporter (Promega). HEK293 cells were grown in minimum essential medium (MEM) with 2 mM L-glutamine and Earle's balanced salt solution supplemented with 8.3% fetal bovine serum, 0.1 mM non-essential amino acids, 1 mM sodium pyruvate, at 37° C. in 5% CO2. 3.5×10^4 cells/well were plated in 96-well cell culture plates in growth medium supplemented with 8.3% fetal bovine serum for 16-20 h to ˜90% confluency. For transfection, medium was taken off and LXR and cofactor expressing plasmids as well as the reporter plasmids are added in 30 μL OPTIMEM/well including polyethylene-imine (PEI) as vehicle. Typical amounts of plasmids transfected/well: pCMV-AD-LXR (5 ng), pCMV-BD-cofactor (5 ng), pFR-Luc (100 ng), pRL-CMV (0.5 ng). Compound stocks were prepared in DMSO, prediluted in MEM to a total volume of 120 μL, and added 4 h after addition of the transfection mixture (final vehicle concentration not exceeding 0.2%). Cells were incubated for additional 16 h, lysed for 10 min in 1× Passive Lysis Buffer (Promega) and Firefly and Renilla luciferase activities were measured sequentially in the same cell extract using buffers containing D-luciferine and coelenterazine, respectively. Measurements of luminescence were done in a BMG-luminometer.

Series [4] is described as follows: Pharmacokinetics in mice after single oral dosing (blood/plasma and liver exposure). The format is in vivo, mice (C57/bl6/J). Here is the method: The pharmacokinetics of the compounds was assessed in mice after single dosing and oral administrations. Blood/plasma and liver exposure was measured via LC-MS.
The study design was as follows:
Animals: C57/bl6/J (Janvier) males
Diet: standard rodent chow
Animal handling: animals were withdrawn from food at least 12 h before administration
Design: single dose oral administration, n=3 animals per group
Sacrifice: at stated time point (4, 12 or 24 h) after administration
Bioanalytics: LC-MS of liver and blood/plasma samples

Usually EC50 stands for the concentration giving half of the maximal effect.

For `N#Cc1sccc1-c1c(-c2ccc(F)cc2)n(S(=O)(=O)c2ccc(Cl)cc2)c2ccccc12` [26/1], the half-maximal effective concentration (EC50) is less than 100 nM in series [1], 1000 to 10000 nM in series [2] and 100 to 1000 nM in series [3].
For `Cc1ccc(S(=O)(=O)n2c(-c3cccc(-c4cccc(C(=O)O)c4)c3)c(-c3ccsc3C#N)c3ccccc32)cc1` [30/1], the values for the EC50 in series [1], in series [2] and in series [3] were less than 100 nM, 100 to 1000 nM and 100 to 1000 nM, respectively.
With `Cc1ccc(S(=O)(=O)n2c(-c3cccc(-c4cccc(C(C)(C)C(=O)O)c4)c3)c(-c3ccsc3C#N)c3ccccc32)cc1` [30/2], the EC50 in series [1] fell in the range of 100 to 1000 nM; in series [2] it was 1000 to 10000 nM; in series [3] it was 100 to 1000 nM.
In the case of `N#Cc1sccc1-c1c(-c2cccc(CCCC(=O)O)c2)n(S(=O)(=O)c2ccc(Cl)cc2)c2ccccc12` [30/5], the EC50 in series [1] was less than 100 nM; in series [2] it was 1000 to 10000 nM; in series [3], 100 to 1000 nM.
The matching figures for `N#Cc1sccc1-c1c(-c2cccc(N3CC(C(=O)O)C3)n2)n(S(=O)(=O)c2ccc(Cl)cc2)c2ccccc12` [30/6]: 100 to 1000 nM, 1000 to 10000 nM and 100 to 1000 nM.
Taken in the same sequence, the figures for `N#Cc1sccc1-c1c(-c2ccc(C3CC3C(=O)O)s2)n(S(=O)(=O)c2ccc(Cl)cc2)c2ccccc12` (centres unmarked) [30/8] were 100 to 1000 nM, 1000 to 10000 nM and 100 to 1000 nM.
Taken in the same sequence, the figures for `N#Cc1sccc1-c1c(-c2cc(Cl)cc(C3CC3C(=O)O)c2)n(S(=O)(=O)c2ccc(Cl)cc2)c2ccccc12` (centres unmarked) [30/9] were less than 100 nM, 1000 to 10000 nM and 100 to 1000 nM.
Turning to `N#Cc1sccc1-c1c(-c2cccc(N3CCC(C(=O)O)C3)c2)n(S(=O)(=O)c2ccc(Cl)cc2)c2ccccc12` (centres unmarked) [30/11], the figures for the concentration giving a half-maximal response (EC50) in series [1], in series [2] and in series [3] were less than 100 nM, 100 to 1000 nM and 100 to 1000 nM, respectively.
On to `N#Cc1sccc1-c1c(-c2cccc(C3CC3C(=O)O)c2)n(S(=O)(=O)C2CC2)c2ccccc12` (centres unmarked) [30/12], for which the EC50 in series [1] is 100 to 1000 nM; in series [2], 1000 to 10000 nM; in series [3], 1000 to 10000 nM.
With `Cc1ccc(S(=O)(=O)n2c(-c3cccc(C4CC4C(=O)O)c3)c(-c3ccsc3F)c3ccccc32)cc1` (centres unmarked) [30/14], the EC50 fell in the range of 100 to 1000 nM in series [1], 1000 to 10000 nM in series [2] and 100 to 1000 nM in series [3].
Take `Cc1ccc(S(=O)(=O)n2c(-c3cccc(C4CC4C(=O)O)c3)c(-c3ccc(F)cc3C#N)c3ccccc32)cc1` (centres unmarked) [30/15]: the results for the EC50 in series [1], in series [2] and in series [3] were 100 to 1000 nM, 1000 to 10000 nM and 100 to 1000 nM, respectively.
As to `CS(=O)(=O)NC(=O)C1CC1c1cccc(-c2c(-c3ccsc3C#N)c3ccccc3n2S(=O)(=O)c2ccc(Cl)cc2)c1` (centres unmarked) [32/1], the half-maximal effective concentration (EC50) in series [1] is less than 100 nM; in series [2] it was 100 to 1000 nM; in series [3], 100 to 1000 nM.
As to `NC(=O)c1sccc1-c1c(-c2cccs2)n(S(=O)(=O)c2ccc(Cl)cc2)c2ccccc12` [Example 22], the EC50 in series [1] lay within 100 to 1000 nM; in series [2] it was 1000 to 10000 nM; in series [3], 100 to 1000 nM.
As to `N#Cc1sccc1-c1c(-c2cccs2)n(S(=O)(=O)C2CCCCC2)c2ccccc12` [Example 24, 3-(1-(Cyclohexylsulfonyl)-2-(thiophen-2-yl)-1H-indol-3-yl)thiophene-2-carbonitrile], the EC50 in series [1] is less than 100 nM; in series [2], 1000 to 10000 nM; in series [3], 100 to 1000 nM.
As for `N#Cc1sccc1-c1c(-c2ccccc2)n(S(=O)(=O)c2ccc(Cl)cc2)c2ccccc12` [Example 26, 3-(1-((4-Chlorophenyl)sulfonyl)-2-phenyl-1H-indol-3-yl)thiophene-2-carbonitrile], the EC50 in series [1] is less than 100 nM; in series [2] it was 100 to 1000 nM; in series [3] it was less than 100 nM.
As to `N#Cc1sccc1-c1c(-c2cccc(OCCC(=O)O)n2)n(S(=O)(=O)c2ccc(Cl)cc2)c2ccccc12` [Example 31, 3-((6-(1-((4-Chlorophenyl)sulfonyl)-3-(2-cyanothiophen-3-yl)-1H-indol-2-yl)pyridin-2-yl)oxy)propanoic Acid], the results for the EC50 in series [1], in series [2] and in series [3] were 100 to 1000 nM, 1000 to 10000 nM and 100 to 1000 nM, respectively.
As to `CCOC(=O)c1ccc(CN(Cc2ccc(-c3cccc(S(C)(=O)=O)c3)cc2)S(=O)(=O)c2c(C)cc(C)cc2C)o1` [SR9238, reference compound], the “blood/plasma exposure (below LLOQ, LLOQ value not given)” value in series [4] (20 mg/kg single oral dose, time point 4 h) was “LLOQ”. Moreover, in series [4] (oral administration), the “oral bioavailability (in words)” value is recorded as “not orally bioavailable”.
